Laboratory results taken from patent US9750689B2, “Transdermal silicone gel (silogel) compositions and methods of preparation” (Humco Holding Group, Inc., priority 2013, dated 2017).
Read-outs that look alike come from different tables or passages of the source.

Experiment: Percutaneous absorption testing (percent of applied dose that penetrated past the stratum corneum)
Source text: See Jorge, L., et al., Journal of Pain Research, Topical Preparations for Pain Relief—Efficacy and Patient Adherence, Vol. 4, No. 11-24, 2011.

[1] = 2 Hours, eight drugs dissolved together in Salt-Stable LS Advanced
[2] = 4 Hours, eight drugs dissolved together in Salt-Stable LS Advanced
[3] = 8 Hours, eight drugs dissolved together in Salt-Stable LS Advanced
[4] = 12 Hours, eight drugs dissolved together in Salt-Stable LS Advanced
[5] = 24 Hours, eight drugs dissolved together in Salt-Stable LS Advanced
[6] = 32 Hours, eight drugs dissolved together in Salt-Stable LS Advanced
[7] = 48 Hours, eight drugs dissolved together in Salt-Stable LS Advanced

Structure (SMILES) | Percutaneous Absorption Testing, 2 Hours (2 h) [%] | Percutaneous Absorption Testing, 4 Hours (4 h) [%] | Percutaneous Absorption Testing, 8 Hours (8 h) [%] | Percutaneous Absorption Testing, 12 Hours (12 h) [%] | Percutaneous Absorption Testing, 24 Hours (24 h) [%] | Percutaneous Absorption Testing, 32 Hours (32 h) [%] | Percutaneous Absorption Testing, 48 Hours (48 h) [%] | also measured
NCC(CC(=O)O)c1ccc(Cl)cc1 (stereo not shown) [Baclofen] | 0 | 1 | 2 | 3 | 4 | 5 | 6 | 
CCCCN1CCCCC1C(=O)Nc1c(C)cccc1C (stereo not shown) [Bupivacaine] | 0 | 1 | 1 | 2 | 3 | 4 | 4 | 
CN(C)CCC=C1c2ccccc2C=Cc2ccccc21 [Cyclobenzaprine] | 0 | 2 | 3 | 5 | 7 | 8 | 10 | 
O=C(O)Cc1ccccc1Nc1c(Cl)cccc1Cl [Diclofenac] | 0 | 1 | 4 | 4 | 7 | 10 | 10 | 
NCC1(CC(=O)O)CCCCC1 [Gabapentin] |  |  |  |  |  |  |  | Percutaneous Absorption Testing, 2 Hours [1]: 0%; Percutaneous Absorption Testing, 4 Hours [2]: 0%; Percutaneous Absorption Testing, 8 Hours [3]: 1%; Percutaneous Absorption Testing, 12 Hours [4]: 2%; Percutaneous Absorption Testing, 24 Hours [5]: 2%; Percutaneous Absorption Testing, 32 Hours [6]: 3%; Percutaneous Absorption Testing, 48 Hours [7]: 3%
CC(C)Cc1ccc(C(C)C(=O)O)cc1 (stereo not shown) [Ibuprofen] |  |  |  |  |  |  |  | Percutaneous Absorption Testing, 2 Hours: 5%; Percutaneous Absorption Testing, 4 Hours: 8%; Percutaneous Absorption Testing, 12 Hours: 20%; Percutaneous Absorption Testing, 24 Hours: 30%; Percutaneous Absorption Testing, 32 Hours: 39%; Percutaneous Absorption Testing, 48 Hours: 39%
CNC1(c2ccccc2Cl)CCCCC1=O (stereo not shown) [Ketamine] |  |  |  |  |  |  |  | Percutaneous Absorption Testing, 2 Hours [1]: 4%; Percutaneous Absorption Testing, 4 Hours [2]: 7%; Percutaneous Absorption Testing, 8 Hours [3]: 20%; Percutaneous Absorption Testing, 12 Hours [4]: 25%; Percutaneous Absorption Testing, 24 Hours [5]: 38%; Percutaneous Absorption Testing, 32 Hours [6]: 51%; Percutaneous Absorption Testing, 48 Hours [7]: 51%
CC(=O)CCCCn1c(=O)c2c(ncn2C)n(C)c1=O [Pentoxifylline] | 3 | 7 | 26 | 34 | 53 | 71 | 71 | 
